# Experiments:
# [1] = tested on: S. aureus HH 127; experiment: MIC in vitro (Table 1), S. aureus HH 127; format: cell-based; conditions: Staphylococcus aureus, HH127, in vitro, S. aureus HH 127; read-out: MIC
# Excerpt: (§1) Compound names corresponding to numbers are given in the experimental section. For comparative purposes, data for cephamandole, which is 7-mandelamido-3-(1-methyltetrazol-5-ylthiomethyl)-3-cephem-4-carboxylic acid, is also given in Tables 1 and 2.
# [2] = tested on: S. aureus SK 23390; experiment: MIC in vitro (Table 1), S. aureus SK 23390; format: cell-based; conditions: Staphylococcus aureus, SK23390, in vitro, S. aureus SK 23390; read-out: MIC
# Excerpt: as §1
# [3] = tested on: S. villaluz; experiment: MIC in vitro (Table 1), S. villaluz; format: cell-based
# Excerpt: as §1, with “The compounds of Formula I have antibacterial activity against both Gram-positive and Gram-negative organisms. […] Compound” for “Compound”
# [4] = tested on: Strep. Faecalis HH 34358; experiment: MIC in vitro (Table 1), Strep. Faecalis HH 34358; format: cell-based; conditions: Enterococcus faecalis, in vitro, Strep. Faecalis HH 34358; read-out: MIC
# Excerpt: as §1
# [5] = tested on: E. coli SK 12140; experiment: MIC in vitro (Table 1), E. coli SK 12140; format: cell-based; conditions: Escherichia coli, SK12140, in vitro, read-out: MIC
# Excerpt: as §1
# [6] = tested on: E. coli HH 33779; experiment: MIC in vitro (Table 1), E. coli HH 33779; format: cell-based; conditions: Escherichia coli, HH33779, in vitro, E. coli HH 33779; read-out: MIC
# Excerpt: as §1
# [7] = tested on: Kleb. pneumo. SK 4200; experiment: MIC in vitro (Table 1), Kleb. pneumo. SK 4200; format: cell-based; conditions: in vitro, Kleb. pneumo. SK 4200; read-out: MIC
# Excerpt: as §1
# [8] = tested on: Kleb. pneumo. SK 1200; experiment: MIC in vitro (Table 1), Kleb. pneumo. SK 1200; format: cell-based; conditions: read-out: MIC
# Excerpt: as §1
# [9] = tested on: Pseudo. sp. HH 63; experiment: MIC in vitro (Table 1), Pseudo. sp. HH 63; format: cell-based
# Excerpt: as §1, with “The compounds of Formula I have antibacterial activity against both Gram-positive and Gram-negative organisms. […] Compound” for “Compound”
# [10] = tested on: Salmonella ATCC 12176; experiment: MIC in vitro (Table 1), Salmonella ATCC 12176; format: cell-based; conditions: Salmonella, ATCC12176, in vitro
# Excerpt: as §1, with “The compounds of Formula I have antibacterial activity against both Gram-positive and Gram-negative organisms. […] Compound” for “Compound”
# [11] = tested on: Shigella HH 117; experiment: MIC in vitro (Table 1), Shigella HH 117; format: cell-based; conditions: Shigella, HH117, in vitro
# Excerpt: as §1, with “The compounds of Formula I have antibacterial activity against both Gram-positive and Gram-negative organisms. […] Compound” for “Compound”
# [12] = tested on: Entero. aerog. ATCC 13048; experiment: MIC in vitro (Table 1), Entero. aerog. ATCC 13048; format: cell-based; conditions: in vitro, Entero. aerog. ATCC 13048; read-out: MIC
# Excerpt: as §1
# [13] = tested on: Serra. Marc. ATCC 13880; experiment: MIC in vitro (Table 1), Serra. Marc. ATCC 13880; format: cell-based; conditions: in vitro, Serra. Marc. ATCC 13880; read-out: MIC
# Excerpt: as §1
# [14] = tested on: Entero. cloacae HH 31254; experiment: MIC in vitro (Table 1), Entero. cloacae HH 31254; format: cell-based; conditions: Enterobacter cloacae, HH31254, in vitro, Entero. cloacae HH 31254; read-out: MIC
# Excerpt: as §1
# [15] = tested on: Proteus morgani 179; experiment: MIC in vitro (Table 1), Proteus morgani 179; format: cell-based; conditions: read-out: MIC
# Excerpt: as §1
# [16] = tested on: E. coli 12140; experiment: In vivo mouse protection (Table 2), E. coli 12140
# Excerpt: as §1
# [17] = tested on: Kleb. pneumo. 4200; experiment: In vivo mouse protection (Table 2), Kleb. pneumo. 4200
# Excerpt: as §1
smiles,measurement,setting,value
"Cn1nnnc1SCC1=C(C(=O)O)N2C(=O)C(NC(=O)C(O)c3ccccc3)[C@H]2SC1 (stereo partly shown) [cephamandole, 7-mandelamido-3-(1-methyltetrazol-5-ylthiomethyl)-3-cephem-4-carboxylic acid, reference compound]",MIC,[1],1 µg/mL
same,MIC,[2],0.6 µg/mL
same,MIC,[3],8 µg/mL
same,MIC,[4],2.3 µg/mL
same,MIC,[5],1.1 µg/mL
same,MIC,[6],2.6 µg/mL
same,MIC,[7],1.1 µg/mL
same,MIC,[8],0.6 µg/mL
same,MIC,[9],> 200 µg/mL
same,MIC,[10],0.6 µg/mL
same,MIC,[11],0.2 µg/mL
same,MIC,[12],2.9 µg/mL
same,MIC,[13],13 µg/mL
same,MIC,[14],0.7 µg/mL
same,MIC,[15],1.3 µg/mL
same,ED50,"[16]; Escherichia coli, 12140, po, E. coli 12140, p.o.",28 mg/kg
same,ED50,"[16]; Escherichia coli, 12140, sc, E. coli 12140, s.c.",< 2 mg/kg
same,ED50,"[17]; po, Kleb. pneumo. 4200, p.o.",> 50 mg/kg
same,ED50,"[17]; sc, Kleb. pneumo. 4200, s.c.",0.96 mg/kg

# Source: US4220644A, “7-Acylamino-3-(substituted tetrazolyl thiomethyl) cephalosporins” (SmithKline Corporation, priority 1976, dated 1980)
